# Test results taken from US12053473B2, “Benzylamino substituted quinazolines and derivatives as SOS1 inhibitors” (priority 2016, dated 2024).
# pIC50: −log10 of the molar value.
# Molecular target: SOS1 and KRAS G12D (protein-protein interaction) (Homo sapiens, UniProt Q07889)
# Assay: KRAS::SOS1 AlphaScreen binding assay
# Conditions: not given
# Description: KRAS::SOS1 AlphaScreen Binding Assay
# Low IC50 values are indicative of high potency of the SOS1 inhibitor compound in this assay setting:
# 10 nM (final assay concentration) KRAS G12D, 10 μM (final assay concentration) GDP and 5 nM (final assay concentration) GST-SOS1 are mixed in assay buffer prior to use and kept at room temperature.
# AlphaLSA Glutathione Acceptor Beads and AlphaScreen Streptavidin Donor Beads are mixed in assay buffer at a concentration of 10 μg/mL (final assay concentration) each prior to use and kept at room temperature.
# Compounds are diluted to a final start concentration of 100 μM and are tested in duplicate. […] For compound a start concentration of 100 μM, 150 nL of compound solution is transferred per well in 11 concentrations in duplicate with serial 1:5 dilutions.
# The assay is run using a fully automated robotic system in a darkened room below 100 Lux. 10 μL of KRAS::SOS1 GDP mix is added into columns 1-24 to the 150 nL of compound solution (final dilution in the assay 1:100, final DMSO concentration 1%).
# After a 30 minute incubation time 5 μL of bead mix is added into columns 1-23. Plates are kept at room temperature in a darkened incubator. After a further 60 minute incubation, the signal is measured using a PerkinElmer Envision HTS Multilabel Reader using the AlphaScreen specifications from PerkinElmer. Each plate contains the following controls: • diluted DMSO+KRAS::SOS1 GDP mix+bead mix • diluted DMSO+KRAS::SOS1 GDP mix Result Calculation:
# IC50 values are calculated and analyzed using a 4 parametric logistic model.
row,SMILES,pIC50
1,COCCN1CCN(C(=O)[C@H]2CC[C@@H](c3cc4c(N[C@H](C)c5cc(N)cc(C(F)(F)F)c5F)nc(C)nc4cc3OC)CC2)CC1 [I-247],7.74

# Same assay, conditions: assay buffer with 100 μM EDTA (values marked with an asterisk); read-out: IC50 (SOS1)
row,SMILES,pIC50
1,Cc1nc(N[C@H](C)c2cccc(C(F)(F)F)c2)c2cc(-c3cnn(C4CCNCC4)c3)ccc2n1 [I-168],7.32
2,Cc1cccc([C@@H](C)Nc2nc(C)nc3ccc(C4CCNCC4)cc23)c1 [I-183],7.42
3,Cc1nc(N[C@H](C)c2cccc(Cl)c2)c2cc(C3=CCNCC3)ccc2n1 [I-172],7.41
4,Cc1cccc([C@@H](C)Nc2nc(C)nc3ccc([C@H]4CC[C@H](O)CC4)cc23)c1 [I-64],7.47
5,Cc1nc(N[C@H](C)c2cccc(C(F)(F)F)c2)c2cc(C3=CCNCC3)ccc2n1 [I-171],7.74

# Same assay, conditions: assay buffer without EDTA (values not marked with an asterisk); read-out: IC50 (SOS1)
row,SMILES,pIC50
1,Cc1nc(N[C@H](C)c2cc(N)cc(C(F)(F)F)c2)c2cc(O[C@H]3CCN(C(=O)C4CC4)C3)c(C)cc2n1 [I-54],8.40
2,Cc1cccc([C@@H](C)Nc2nc(C)nc3cc(C)c(C4CCN(CC(=O)O)CC4)cc23)c1 [I-291],8.00
3,COc1cc2nc(C)nc(N[C@H](C)c3cccc(C4(O)COC4)c3)c2cc1C1=CCN(C(C)=O)CC1 [I-17],7.47
4,Cc1cccc([C@@H](C)Nc2nc(C)nc3c(C)cc(C4CCN(CC(=O)O)CC4)cc23)c1 [I-292],7.55
5,COc1cc2nc(C)nc(N[C@H](C)c3cccc(C)c3)c2cc1O[C@H]1CCN(C(C)=O)C1 [I-4],7.52
6,COc1cc2nc(C)nc(N[C@H](C)c3cccc(C(F)(F)F)c3)c2cc1-c1ccc(C(=O)N(C)C)cn1 [I-191],7.46
7,COCC(=O)N1CCC(O)(c2cc3c(N[C@H](C)c4cccc(C(F)(F)F)c4)nc(C)nc3cc2OC)CC1 [I-47],8.30
8,COCC(=O)N1CCC(O)(c2cc3c(N[C@H](C)c4cccc(C(F)(F)F)c4F)nc(C)nc3cc2OC)CC1 [I-46],8.40
9,COc1cc2nc(C)nc(N[C@H](C)c3cccc(C(F)(F)F)c3)c2cc1C1(O)CCN(C(C)=O)CC1 [I-44],8.40
10,CC(=O)N1CCC(O)(c2ccc3nc(C)nc(N[C@H](C)c4cccc(C)c4)c3c2)CC1 [I-52],7.85
11,COc1cc2nc(C)nc(N[C@H](C)c3cccc(C4(O)COC4)c3)c2cc1O[C@H]1CCOC1 [I-16],7.42
12,COc1cc2nc(C)nc(N[C@H](C)c3cccc(C(F)(F)F)c3)c2cc1-c1ccc(C(=O)N(C)C)nc1 [I-189],7.64
13,CC(=O)N1CCC(O)(c2cc(C)c3nc(C)nc(N[C@H](C)c4cccc(C(F)(F)F)c4)c3c2)CC1 [I-43],8.10
14,Cc1cccc([C@@H](C)Nc2nc(C)nc3c(C)cc(C4CCN(C5CCOC5)CC4)cc23)c1 (stereo partly shown) [I-290],7.55
15,Cc1nc(N[C@H](C)c2cc(N)cc(C(F)(F)F)c2)c2cc([C@H]3CC[C@H](O)CC3)ccc2n1 [I-65],8.10
16,CC(=O)N1CC2(C1)CC(O)(c1cc(C)c3nc(C)nc(N[C@H](C)c4cccc(C(F)(F)F)c4)c3c1)C2 [I-42],7.59
17,COc1cc2nc(C)nc(N[C@H](C)c3cccc(C(F)(F)CO)c3)c2cc1C1CCOCC1 [I-164],8.52

# Same assay, conditions: read-out: IC50 (SOS1)
row,SMILES,pIC50
1,COc1cc(-c2cc3c(N[C@H](C)c4cccc(C(F)(F)F)c4)nc(C)nc3cc2OC)ccc1C(=O)N(C)C [I-217],7.37
2,Cc1nc(N[C@H](C)c2cc(N)cc(C(F)(F)F)c2)c2cc(C3CCS(=O)(=O)CC3)c(C)cc2n1 [I-321],8.52
3,Cc1nc(N[C@H](C)c2cccc(C(F)(F)F)c2)c2cc([C@H]3CC[C@H](C(=O)N4CC(F)C4)CC3)ccc2n1 [I-231],7.72
4,COc1cc2nc(C)nc(N[C@H](C)c3cc(N)cc(C(F)(F)F)c3)c2cc1[C@H]1CC[C@H](C(=O)N(C)C)CC1 [I-355],8.70
5,CONC(=O)CC(C)c1cc2c(N[C@H](C)c3cccc(C(F)(F)F)c3)nc(C)nc2cc1OC (stereo partly shown) [I-382],7.80
6,Cc1nc(N[C@H](C)c2cc(N)cc(C(F)(F)F)c2C)c2cc(C3CCS(=O)(=O)CC3)ccc2n1 [I-317],8.40
7,Cc1nc(N[C@H](C)c2cccc(C(F)(F)F)c2)c2cc(C3CCN(CC(=O)N(C)C)CC3)ccc2n1 [I-273],7.96
8,Cc1nc(N[C@H](C)c2cc(N)cc(C(F)(F)F)c2)c2cc([C@H]3CC[C@@H](C(=O)N(C)CCO)CC3)ccc2n1 [I-253],8.15
9,Cc1nc(N[C@H](C)c2cc(N)cc(C(F)(F)F)c2)c2cc([C@H]3CC[C@H](C(=O)N4CCOCC4)CC3)ccc2n1 [I-234],8.70
10,Cc1nc(N[C@H](C)c2cc(N)cc(C(F)(F)F)c2)c2cc(-c3ccc(=O)[nH]c3)ccc2n1 [I-102],8.05
11,Cc1nc(N[C@H](C)c2cccc(C(F)(F)F)c2)c2cc(C(C)CC(=O)NC3CC3)c(C)cc2n1 (stereo partly shown) [I-379],7.92
12,CNC(=O)CC(C)c1cc2c(N[C@H](C)c3cccc(C(F)(F)F)c3)nc(C)nc2cc1OC (stereo partly shown) [I-381],7.77
13,Cc1nc(N[C@H](C)c2cc(N)cc(C(F)(F)F)c2)c2cc(C3CCS(=O)(=O)CC3)cc(C)c2n1 [I-316],8.22
14,CCN(C)C(=O)[C@H]1CC[C@@H](c2ccc3nc(C)nc(N[C@H](C)c4cc(N)cc(C(F)(F)F)c4)c3c2)CC1 [I-239],7.82
15,COc1cc2nc(C)nc(N[C@H](C)c3cc(N)cc(C(F)(F)F)c3)c2cc1-c1cnn(CC(=O)N(C)C)c1 [I-84],8.22
16,Cc1nc(N[C@H](C)c2cccc(C(F)(F)F)c2)c2cc([C@H]3CC[C@H](C(=O)N(C)C)CC3)ccc2n1 [I-229],8.15
17,COCCN1CCN(C(=O)[C@H]2CC[C@H](c3ccc4nc(C)nc(N[C@H](C)c5cc(N)cc(C(F)(F)F)c5)c4c3)CC2)CC1 [I-240],8.70
18,COC1CN(C(=O)[C@H]2CC[C@H](c3ccc4nc(C)nc(N[C@H](C)c5cccc(C(F)(F)F)c5)c4c3)CC2)C1 [I-230],7.49

row,SMILES,pIC50
1,COc1cc2nc(C)nc(N[C@H](C)c3cc(N)cc(C(F)(F)F)c3F)c2cc1[C@H]1CC[C@@H](C(=O)N(C)C)CC1 [I-245],7.46
2,COc1cc2nc(C)nc(N[C@H](C)c3cccc(C(F)(F)F)c3)c2cc1C(C)CC(=O)NC1CC1 (stereo partly shown) [I-383],7.68
3,COc1cc2nc(C)nc(N[C@H](C)c3cc(N)cc(C(F)(F)F)c3F)c2cc1-c1ccc(=O)n(C)c1 [I-110],8.10
4,Cc1nc(N[C@H](C)c2cc(N)cc(C(F)(F)F)c2)c2cc([C@H]3CC[C@H](C(=O)N(C)C)CC3)ccc2n1 [I-298],8.52
5,COc1cc2nc(C)nc(N[C@H](C)c3cc(N)cc(C(F)(F)F)c3)c2cc1-c1ccc(C(=O)N(C)CCO)nc1 [I-224],8.40
6,COc1cc2nc(C)nc(N[C@H](C)c3cccc(C(F)(F)F)c3)c2cc1-c1ccc(C(=O)N(C)C)c(C)c1 [I-216],7.32
7,Cc1nc(N[C@H](C)c2cc(N)cc(C(F)(F)F)c2)c2cc([C@H]3CC[C@H](C(=O)N4CCN(C)CC4)CC3)cc(C)c2n1 [I-361],8.30
8,Cc1cccc([C@@H](C)Nc2nc(C)nc3ccc([C@H]4CC[C@H](C(=O)N(C)C)CC4)cc23)c1 [I-264],7.89
9,CONC(=O)CC(C)c1ccc2nc(C)nc(N[C@H](C)c3cccc(C(F)(F)F)c3)c2c1 (stereo partly shown) [I-376],7.47
10,Cc1cccc([C@@H](C)Nc2nc(C)nc3cc(C)c(-c4ccc(C(=O)N5CCOCC5)cc4)cc23)c1 [I-83],7.36
11,COc1cc2nc(C)nc(N[C@H](C)c3cc(N)cc(C(F)(F)F)c3F)c2cc1[C@H]1CC[C@H](C(=O)N(C)C)CC1 [I-244],8.70
12,COc1cc2nc(C)nc(N[C@H](C)c3cccc(C(F)(F)CO)c3)c2cc1C1=CCN(C(C)=O)CC1 [I-287],8.70
13,Cc1nc(N[C@H](C)c2cc(N)cc(C(F)(F)F)c2)c2cc([C@H]3CC[C@@H](C(=O)N(C)C)CC3)ccc2n1 [I-299],8.00
14,Cc1nc(N[C@H](C)c2cccc(C(F)(F)F)c2)c2cc(C3=CCC(C(=O)N4CCN(C)CC4)CC3)ccc2n1 (stereo partly shown) [I-223],7.57
15,COc1cc2nc(C)nc(N[C@H](C)c3cc(N)cc(C(F)(F)F)c3)c2cc1[C@H]1CC[C@@H](C(=O)N(C)C)CC1 [I-356],7.47
16,Cc1nc(N[C@H](C)c2cc(N)cc(C(F)(F)F)c2)c2cc([C@H]3CC[C@@H](C(=O)N4CCOCC4)CC3)ccc2n1 [I-235],8.10
17,Cc1nc(N[C@H](C)c2cccc(C(F)(F)F)c2)c2cc(C(C)CC(=O)NCC(F)(F)F)c(C)cc2n1 (stereo partly shown) [I-380],7.38

# Same assay, conditions: read-out: IC50 (SOS1); assay buffer without EDTA (values not marked with an asterisk)
row,SMILES,pIC50
1,Cc1nc(N[C@H](C)c2cccc(C(F)(F)F)c2C)c2cc(C3(O)CCC(O)CC3)ccc2n1 (stereo partly shown) [I-63],8.05

# Same assay, conditions: values marked with * in the table; read-out: IC50 (SOS1)
row,SMILES,pIC50
1,CNC(=O)Cn1cc(-c2ccc3nc(C)nc(N[C@H](C)c4cccc(C(F)(F)F)c4)c3c2)ccc1=O [I-344],7.43
2,Cc1cccc([C@@H](C)Nc2nc(C)nc3ccc(-c4ccc(=O)[nH]c4)cc23)c1 [I-99],7.54
3,Cc1cccc([C@@H](C)Nc2nc(C)nc3cc(C)c(-c4ccc(=O)n(C)c4)cc23)c1 [I-105],7.44
4,Cc1cccc([C@@H](C)Nc2nc(C)nc3ccc(-c4ccc(=O)n(C)c4)cc23)c1 [I-103],7.34
5,Cc1cccc([C@@H](C)Nc2nc(C)nc3ccc([C@H]4CC[S@@](=N)(=O)CC4)cc23)c1 [I-331],7.60
